The nature of the data set: Solubility of ezetimibe. It is filed as physicochemical. The text has this:
Crystallization decreases the solubility of ezetimibe. […] In contrast, the release rate from coated 50% drug loading ASD particles barely changed.

≈ marks a conversion by molar mass, not a printed value.

Regarding `O=C1[C@H](CC[C@H](O)c2ccc(F)cc2)[C@@H](c2ccc(O)cc2)N1c1ccc(F)cc1` [amorphous ezetimibe, ezetimibe], the solubility was determined as 20.2 ± 0.4 µg/mL (≈ 49.3 µM).

Molecule `O=C1[C@H](CC[C@H](O)c2ccc(F)cc2)[C@@H](c2ccc(O)cc2)N1c1ccc(F)cc1` [crystalline ezetimibe, ezetimibe] displayed a solubility of 0.8 ± 0.3 µg/mL (≈ 1.95 µM).

In general, solubility refers to the concentration that dissolves in the medium under given conditions. The low end stands for a poorly soluble substance, the high end for a readily soluble substance.
